{
  "source": "paper PMC7587356",
  "about": "“High-Throughput Screening for Inhibitors of the SARS-CoV-2 Protease Using a FRET-Biosensor” (Molecules, 2020)",
  "biological_target": "SARS-CoV-2 3CLpro (Severe acute respiratory syndrome coronavirus 2, UniProt P0DTD1)",
  "assay": "biochemical",
  "type": "biochemical",
  "design": "Replicate_1 / Replicate_2 / mean / mean (LOPAC_screen_w_protease): unit not given here",
  "details": "for inhibition at 5 µM: 4 h",
  "key": {"[1]": {"details": "LOPAC1280 primary screen with protease, 5 µM compound, replicate 1"}, "[2]": {"details": "LOPAC1280 primary screen with protease, 5 µM compound, replicate 2"}, "[3]": {"details": "sheet LOPAC_screen_w_protease, primary screen with protease, compound at 5 µM, mean of two replicates"}, "[4]": {"details": "sheet LOPAC_screen_w_protease, primary screen with protease, compound at 5 µM, replicate 1"}, "[5]": {"details": "sheet LOPAC_screen_w_protease, primary screen with protease, compound at 5 µM, replicate 2"}, "[6]": {"details": "sheet LOPAC_screen_w_protease, primary screen with protease, mean of two replicates"}, "[7]": {"details": "sheet LOPAC_screen_w_protease, primary screen with protease, replicate 1"}, "[8]": {"details": "sheet LOPAC_screen_w_protease, primary screen with protease, replicate 2"}, "[9]": {"details": "sheet LOPAC_screen_w_protease, LOPAC1280 primary screen at 5 µM, with protease, mean of the two replicates, read-out: mean"}, "[10]": {"details": "sheet LOPAC_screen_w_protease, LOPAC1280 primary screen at 5 µM, with protease, replicate 1, read-out: Replicate_1"}, "[11]": {"details": "sheet LOPAC_screen_w_protease, LOPAC1280 primary screen at 5 µM, with protease, replicate 2, read-out: Replicate_2"}, "[12]": {"details": "sheet LOPAC_screen_w_protease, primary screen with protease, 5 µM, mean of two replicates, read-out: mean"}, "[13]": {"details": "sheet LOPAC_screen_w_protease, primary screen with protease, 5 µM, replicate 1, read-out: Replicate_1"}, "[14]": {"details": "sheet LOPAC_screen_w_protease, primary screen with protease, 5 µM, replicate 2, read-out: Replicate_2"}},
  "note": "Counter-ions that a name gives are not always drawn. Like-named read-outs stand apart in the source and are kept apart here.",
  "data": [
    {"compound": "C[C@]12CCC(=O)C=C1CC[C@@H]1[C@@H]2[C@@H](O)C[C@@]2(C)[C@H]1CC[C@]2(O)C(=O)CO", "note": "[Hydrocortisone]", "values": [
      {"measurement": "inhibition at 5 µM", "setting": "sheet LOPAC_screen_w_protease, LOPAC1280 at 5 µM, mean of two replicates, read-out: mean", "value": 1.15, "unit": "%"},
      {"measurement": "inhibition at 5 µM", "setting": "sheet LOPAC_screen_w_protease, LOPAC1280 at 5 µM, replicate 1, read-out: Replicate_1", "value": 2.23, "unit": "%"},
      {"measurement": "inhibition at 5 µM", "setting": "sheet LOPAC_screen_w_protease, LOPAC1280 at 5 µM, replicate 2, read-out: Replicate_2", "value": 0.0692, "unit": "%"}
    ]},
    {"compound": "trans-(±)-ACPD", "values": [
      {"measurement": "Replicate_1 (LOPAC_screen_w_protease)", "setting": "[1]", "value": 2.281},
      {"measurement": "Replicate_2 (LOPAC_screen_w_protease)", "setting": "[2]", "value": 1.598}
    ]},
    {"compound": "O=c1[nH]c2cc(C(F)(F)F)ccc2n1-c1cc(C(F)(F)F)ccc1O", "note": "[NS-1619]", "values": [
      {"measurement": "mean (LOPAC screen with protease)", "setting": "sheet LOPAC_screen_w_protease, primary screen at 5 µM, mean of two replicates", "value": 7.54},
      {"measurement": "Replicate_1 (LOPAC screen with protease)", "setting": "sheet LOPAC_screen_w_protease, primary screen at 5 µM, replicate 1", "value": 6.544},
      {"measurement": "Replicate_2 (LOPAC screen with protease)", "setting": "sheet LOPAC_screen_w_protease, primary screen at 5 µM, replicate 2", "value": 8.536}
    ]},
    {"compound": "CCN1CCc2nc(N)oc2CC1.Cl.Cl", "note": "[B-HT 933 dihydrochloride]", "values": [
      {"measurement": "mean", "setting": "[3]", "value": 2.82},
      {"measurement": "Replicate_1", "setting": "[4]", "value": 2.163},
      {"measurement": "Replicate_2", "setting": "[5]", "value": 3.476}
    ]},
    {"compound": "CCCCC1(C2CCCC2)Cc2cc(OCC(=O)O)c(Cl)c(Cl)c2C1=O", "note": "(stereo in doubt) [R(+)-Butylindazone]", "values": [
      {"measurement": "mean", "setting": "[6]", "value": 2.217},
      {"measurement": "Replicate_1", "setting": "[7]", "value": 3.715},
      {"measurement": "Replicate_2", "setting": "[8]", "value": 0.7192}
    ]},
    {"compound": "CC(C)CN(C)c1nc(N)c(C(=O)N=C(N)N)nc1Cl", "note": "[5-(N-Methyl-N-isobutyl)amiloride]", "values": [
      {"measurement": "inhibition at 5 µM", "setting": "[9]", "value": 0.449, "unit": "%"},
      {"measurement": "inhibition at 5 µM", "setting": "[10]", "value": 0.238, "unit": "%"},
      {"measurement": "inhibition at 5 µM", "setting": "[11]", "value": 0.66, "unit": "%"}
    ]},
    {"compound": "C=CCN1CC[C@]23c4c5ccc(O)c4O[C@H]2/C(=N/NC(=O)c2ccccc2)CC[C@@]3(O)[C@H]1C5", "note": "[Naloxone benzoylhydrazone]", "values": [
      {"measurement": "inhibition at 5 µM", "setting": "read-out: Replicate_1", "value": 2.85, "unit": "%"},
      {"measurement": "inhibition at 5 µM", "setting": "read-out: Replicate_2", "value": 4.95, "unit": "%"},
      {"measurement": "inhibition at 5 µM", "setting": "read-out: mean", "value": 3.9, "unit": "%"}
    ]},
    {"compound": "Ro 8-4304", "values": [
      {"measurement": "mean", "setting": "sheet LOPAC_screen_w_protease, primary screen with protease, 5 µM, mean of two replicates", "value": 0.161},
      {"measurement": "Replicate_1", "setting": "sheet LOPAC_screen_w_protease, primary screen with protease, 5 µM, replicate 1", "value": -1.418},
      {"measurement": "Replicate_2", "setting": "sheet LOPAC_screen_w_protease, primary screen with protease, 5 µM, replicate 2", "value": 1.74}
    ]},
    {"compound": "COc1ccc(Cc2nccc3cc(OC)c(OC)cc23)cc1OC", "note": "[Papaverine hydrochloride]", "values": [
      {"measurement": "inhibition at 5 µM", "setting": "sheet LOPAC_screen_w_protease, LOPAC1280 primary screen with protease, 5 µM compound, mean of the two replicates, read-out: mean", "value": 5.63, "unit": "%"},
      {"measurement": "inhibition at 5 µM", "setting": "sheet LOPAC_screen_w_protease, LOPAC1280 primary screen with protease, 5 µM compound, replicate 1, read-out: Replicate_1", "value": 5.9, "unit": "%"},
      {"measurement": "inhibition at 5 µM", "setting": "sheet LOPAC_screen_w_protease, LOPAC1280 primary screen with protease, 5 µM compound, replicate 2, read-out: Replicate_2", "value": 5.37, "unit": "%"}
    ]},
    {"compound": "CC(=N)NCCCC[C@H](N)C(=O)O.Cl", "note": "[L-N6-(1-Iminoethyl)lysine hydrochloride]", "values": [
      {"measurement": "mean", "setting": "[6]", "value": 2.233},
      {"measurement": "Replicate_1", "setting": "[7]", "value": 3.474},
      {"measurement": "Replicate_2", "setting": "[8]", "value": 0.9911}
    ]},
    {"compound": "Nc1ccncc1", "note": "[4-Aminopyridine]", "values": [
      {"measurement": "inhibition at 5 µM", "setting": "[12]", "value": -0.189, "unit": "%"},
      {"measurement": "inhibition at 5 µM", "setting": "[13]", "value": 0.392, "unit": "%"},
      {"measurement": "inhibition at 5 µM", "setting": "[14]", "value": -0.771, "unit": "%"}
    ]},
    {"compound": "COc1c2c(nc3ccccc13)OC(C(C)(O)CO)C2", "note": "(centres unmarked) [Dubinidine]", "values": [
      {"measurement": "mean", "setting": "[3]", "value": 2.93},
      {"measurement": "Replicate_1", "setting": "[4]", "value": 4.833},
      {"measurement": "Replicate_2", "setting": "[5]", "value": 1.026}
    ]},
    {"compound": "NC(=O)c1ccccc1", "note": "[Benzamide]", "values": [
      {"measurement": "inhibition at 5 µM", "setting": "[9]", "value": 0.755, "unit": "%"},
      {"measurement": "inhibition at 5 µM", "setting": "[10]", "value": 1.21, "unit": "%"},
      {"measurement": "inhibition at 5 µM", "setting": "[11]", "value": 0.297, "unit": "%"}
    ]},
    {"compound": "CC(NC(C)(C)C)C(=O)c1cccc(Cl)c1", "note": "(centres unmarked) [Bupropion hydrochloride]", "values": [
      {"measurement": "inhibition at 5 µM", "setting": "read-out: Replicate_1", "value": 2.66, "unit": "%"},
      {"measurement": "inhibition at 5 µM", "setting": "read-out: Replicate_2", "value": 2.67, "unit": "%"},
      {"measurement": "inhibition at 5 µM", "setting": "read-out: mean", "value": 2.67, "unit": "%"}
    ]},
    {"compound": "Nc1ccc(S(=O)(=O)Nc2ccnn2-c2ccccc2)cc1", "note": "[Sulfaphenazole]", "values": [
      {"measurement": "inhibition at 5 µM", "setting": "[12]", "value": 0.0259, "unit": "%"},
      {"measurement": "inhibition at 5 µM", "setting": "[13]", "value": 0.159, "unit": "%"},
      {"measurement": "inhibition at 5 µM", "setting": "[14]", "value": -0.107, "unit": "%"}
    ]},
    {"compound": "COc1cc2c(CCNC(C)=O)c[nH]c2cc1O", "note": "[6-Hydroxymelatonin]", "values": [
      {"measurement": "mean", "setting": "[6]", "value": 2.302},
      {"measurement": "Replicate_1", "setting": "[7]", "value": 3.2941},
      {"measurement": "Replicate_2", "setting": "[8]", "value": 1.31}
    ]},
    {"compound": "CN1CC[C@]2(CCN3CCc4c(oc5ccccc45)[C@@H]3C2)N(C)C1=O", "note": "[MK-912]", "values": [
      {"measurement": "mean (LOPAC_screen_w_protease)", "setting": "LOPAC1280 primary screen with protease, 5 µM compound, mean of two replicates", "value": 1.637},
      {"measurement": "Replicate_1 (LOPAC_screen_w_protease)", "setting": "[1]", "value": 1.746},
      {"measurement": "Replicate_2 (LOPAC_screen_w_protease)", "setting": "[2]", "value": 1.529}
    ]},
    {"compound": "NS(=O)(=O)c1cc2c(cc1Cl)NC(C1CC3C=CC1C3)NS2(=O)=O", "note": "(centres unmarked) [Cyclothiazide]", "values": [
      {"measurement": "inhibition at 5 µM", "setting": "sheet LOPAC_screen_w_protease, primary screen with protease, compound at 5 µM, mean of two replicates, read-out: mean", "value": 2.93, "unit": "%"},
      {"measurement": "inhibition at 5 µM", "setting": "sheet LOPAC_screen_w_protease, primary screen with protease, compound at 5 µM, replicate 1, read-out: Replicate_1", "value": 4.25, "unit": "%"},
      {"measurement": "inhibition at 5 µM", "setting": "sheet LOPAC_screen_w_protease, primary screen with protease, compound at 5 µM, replicate 2, read-out: Replicate_2", "value": 1.61, "unit": "%"}
    ]}
  ]
}
